Test results from the NIST ThermoML archive (doi:10.1016/j.jct.2009.09.009).
“And” between values parts separate entries of the source, which are not always exact repeats. Equal values may be shown once.

What was measured:
[1] = Crystal, Calculated from knudsen effusion weight loss
[2] = molar enthalpy of vaporization or sublimation; settings: Crystal, Clausius-Clapeyron equation and measured Psat

Nc1cccc2cccc(N)c12 [1,8-diaminonaphthalene]
Settings | molar enthalpy [kcal/mol] | vapor or sublimation pressure
[1], 314.1 K | – | 4.71e-05 kPa and 4.91e-05 kPa and 4.81e-05 kPa
[1], 316.18 K | – | 6.84e-05 kPa and 6.65e-05 kPa and 6.32e-05 kPa
[1], 318.18 K | – | 8.3e-05 kPa and 7.89e-05 kPa and 8.02e-05 kPa
[1], 320.09 K | – | 0.000102 kPa and 9.96e-05 kPa
[1], 322.13 K | – | 0.000135 kPa and 0.000127 kPa and 0.000126 kPa
[1], 324.19 K | – | 0.000165 kPa and 0.000155 kPa and 0.000159 kPa
[1], 326.12 K | – | 0.000197 kPa and 0.000204 kPa and 0.000181 kPa
[1], 328.19 K | – | 0.000261 kPa and 0.000251 kPa and 0.000244 kPa
[1], 330.17 K | – | 0.000315 kPa and 0.000298 kPa and 0.000296 kPa
[1], 332.07 K | – | 0.000351 kPa and 0.000379 kPa and 0.000364 kPa
[1], 334.12 K | – | 0.000485 kPa and 0.000472 kPa and 0.000466 kPa
[1], 336.19 K | – | 0.000583 kPa and 0.00056 kPa and 0.000585 kPa
[1], 338.08 K | – | 0.000707 kPa and 0.000739 kPa and 0.000734 kPa
[2], 326.09 K | 23.3 | –

Nc1cccc2c(N)cccc12 [1,5-diaminonaphthalene]
Settings | molar enthalpy [kcal/mol] | vapor or sublimation pressure
[1], 367.07 K | – | 0.000122 kPa and 0.000123 kPa and 0.000125 kPa
[1], 369.1 K | – | 0.00015 kPa and 0.000153 kPa and 0.000149 kPa
[1], 371.16 K | – | 0.000193 kPa and 0.00019 kPa and 0.000182 kPa
[1], 373.08 K | – | 0.000243 kPa and 0.000229 kPa and 0.000246 kPa
[1], 375.1 K | – | 0.000311 kPa and 0.000289 kPa and 0.000286 kPa
[1], 377.16 K | – | 0.000365 kPa and 0.000344 kPa and 0.000338 kPa
[1], 379.09 K | – | 0.000432 kPa and 0.000427 kPa and 0.000417 kPa
[1], 381.1 K | – | 0.000535 kPa and 0.000522 kPa and 0.000502 kPa
[1], 383.16 K | – | 0.00064 kPa and 0.000622 kPa and 0.000603 kPa
[1], 385.08 K | – | 0.000758 kPa and 0.000781 kPa and 0.000757 kPa
[1], 387.09 K | – | 0.000967 kPa and 0.00093 kPa and 0.000909 kPa
[1], 389.16 K | – | 0.001163 kPa and 0.001096 kPa and 0.001063 kPa
[2], 378.11 K | 28.3 | –
